For orientation: Ki means the dissociation constant of the complex between target and ligand, obtained from inhibition or displacement. A lower Ki goes with higher affinity.

In ChEMBL document CHEMBL1136187, “Quaternary ammonium 3-(aminoethoxy)pyridines as antinociceptive agents” (Bioorg Med Chem Lett, 2003) one finds ED50, Ki and MPE data, which are given here for nine compounds.

Test [1] relates to Mus musculus. Description: Antinociceptive effect upon subcutaneous administration in mice using tail-flick assay; 12-18. The test is classed as functional. To be noted: sc. (In general: Thermal pain tests record how soon the animal reacts.)
The species entered for test [2] is Mus musculus. Description: animal or person. To be noted: Tail, sc.
For test [3], the target named is Neuronal acetylcholine receptor. The experiment in a line: Binding affinity towards nicotinic acetylcholine receptor (nACh) using [3H](-)-nicotine as radioligand in rat brain. The class given is tissue-based.
The test system of test [4] is Mus musculus. Description: Antinociceptive response as maximal possible effect upon subcutaneous administration in mice at the dose of 15 mg/kg. The test is classed as functional.
For test [5], the system named is Mus musculus. Description: Antinociceptive response as maximal possible effect upon intrathecal administration in mouse at the dose of 20 mg/kg. The test is classed as functional.
The subject of test [6] is Mus musculus. The experiment in a line: Antinociceptive response as maximal possible effect upon subcutaneous administration in mice at the dose of 10 mg/kg. The test is classed as functional.
Test [7] concerns Mus musculus. Description: Antinociceptive response as maximal possible effect upon intrathecal administration in mouse at the dose of 25 mg/kg. The test is classed as functional.
For test [8], the system named is Mus musculus. Description: Antinociceptive effect upon intrathecal administration in mouse using tail-flick assay; 10-19. The class given is functional.
In test [9] the test system is Mus musculus. The experiment in a line: Antinociceptive response as maximal possible effect upon subcutaneous administration in mice at the dose of 20 mg/kg. The class given is functional.
The test system of test [10] is Mus musculus. Description: Antinociceptive response as maximal possible effect upon intrathecal administration in mouse at the dose of 15 mg/kg. The class given is functional.
Test [11] has as its system Mus musculus. Description: Antinociceptive effect upon subcutaneous administration in mice using tail-flick assay; 0.9-2.2. The test is classed as functional. To be noted: sc.
Test [12] concerns Mus musculus. The experiment in a line: Antinociceptive effect upon intrathecal administration in mouse using tail-flick assay; 16-23. The class given is functional.

In the test with Mus musculus [1], `CN(C)CCOc1cccnc1.O=C(O)C(=O)O` returned an ED50 of 15 mg/kg.

`CN1CCC[C@H]1c1cccnc1` [NICOTINE] gave an ED50 in the test filed under Mus musculus [2] of 1.5 mg/kg.

`CC(C)[N+](C)(C)CCOc1cccnc1.[Cl-]` registered a Ki in test [3] of 13.8 nM. Also, the values for the MPE in the test with Mus musculus [4] and in the test with Mus musculus [5] were 3% and 2%, respectively.

With `CCC[N+](C)(C)CCOc1cccnc1.[Cl-]`, affinity in test [3] was put at a Ki of 29.2 nM. For the same compound, the MPE worked out at 1% with Mus musculus [4] and 3% in the test on Mus musculus [5].

`CC[N+](C)(C)CCOc1ccc(Br)nc1.[I-]` returned an inhibition constant (Ki) in [3] of 5 nM. Also, the MPE in the test on Mus musculus [6] and with Mus musculus [7] was 0% each time.

Consider `CC[N+](C)(C)CCOc1cccnc1.[Cl-]`, for which, in the test with Mus musculus [8], the ED50 was found to be 14 ug mouse-1. This compound yielded a Ki in [3] of 2.2 nM. The compound further returned an MPE in the test with Mus musculus [9] of 5%.

Turning to `C[N+](C)(C)CCOc1ccc(Cl)nc1.[I-]`, the MPE came out at 4% in the test on Mus musculus [10] and 5% with Mus musculus [6]. In test [3], this compound came in with a Ki of 1.3 nM.

For the compound `COc1ccc(OCC[N+](C)(C)C)cn1`, in test [3], the Ki came out at 37 nM.

`C[N+](C)(C)CCOc1cccnc1.[Cl-]` returned a Ki in test [3] of 0.5 nM. Moreover, the figures for the ED50 with Mus musculus [11] and in the test with Mus musculus [12] were 1.4 mg/kg and 19 ug mouse-1, respectively.
